{"source": "patent US9340559B2", "about": "“Proteasome inhibitor delanzomib for use in the treatment of lupus” (Cephalon, Inc., priority 2011, dated 2016)", "key": {"NZM mice [1]": {"test_system": "NZM mice", "assay": "Survival, NZM lupus nephritis model, ip dosing (Example 2)", "format": "in vivo, mouse", "details": "G6 50 mg/kg ip, 1× wk"}, "NZM mice [2]": {"test_system": "NZM mice", "assay": "Urinalysis: total urine protein (proteinuria), NZM mice (Example 2)", "format": "in vivo, mouse", "details": "G6 50 mg/kg ip, 1× wk"}, "NZM mice [3]": {"test_system": "NZM mice", "assay": "Collagen type-I cross-linker (CTx) bone resorption biomarker ELISA, serum of NZM mice", "format": "in vivo, mouse", "details": "G6 50 mg/kg ip, 1× wk", "procedure": "Assay is performed as instructed by the manufacturer. Briefly, biotinylated ratlaps antigen is first added in each well of a 96-well ELISA plate. This plate is covered and incubated for 30 minutes at RT. Plate is washed five times with washing solution and incubated with standards or unknown samples in appropriate wells followed by primary Ab. Incubate overnight for 18 hours at 4° C. followed by washing with buffer. Secondary incubation includes a peroxidase conjugated goat anti-rabbit IgG added to each well and incubation at RT for 1 hour. Incubation with chromogenic substrate solution for 15 minutes at RT in the dark develops the plate for analysis. Stopping solution halts the reaction, absorbance is measured within 2 hours at 450 nm."}, "NZM mice [4]": {"test_system": "NZM mice", "assay": "Serum C3 complement ELISA, NZM mice (Example 2)"}, "NZM mice [5]": {"test_system": "NZM mice", "assay": "Antinuclear antibody (ANA) ELISA (anti-chromatin, anti-Smith Ag, anti-dsDNA), serum of NZM mice (Example 2)", "format": "in vivo, mouse"}, "NZM mice [6]": {"test_system": "NZM mice", "assay": "Antibody secreting B-cell Elispot (anti-chromatin, total IgG ASC), spleens of NZM mice (Example 2)", "format": "in vivo, mouse", "procedure": "(§1) FIG. 34 depicts the frequency of anti-chromatin antibody secreting cells in the spleens of NZM mice. NZM treated mice spleens were processed for splenocytes for ex vivo Elispot assays. Elispot wells were coated with 10 μg/mL of boiled chicken chromatin or ovalbumin protein. Fresh, whole splenocytes were added to each well at 50,000 cells per well in cell culture medium. Cells were incubated overnight at 37° C. Developed wells provided spots that were counted as frequency of ASCs per million splenocytes.\nas §1, with “35” for “34”, “total IgG” for “anti-chromatin”, “anti-mouse IgG, IgH, and IgL chains.” for “boiled chicken chromatin or ovalbumin protein.”\nB-cell Elispot components are ordered from MabTech (Nacka Strand, Sweden) and nitrocellulose IP filter plates are ordered from Millipore (Billerica, Mass.). Elispot wells are coated with either purified bovine thymus dsDNA (Sigma), purified bovine Smith antigen (GenWay) or boiled filtered purified chicken chromatin from lysed chicken red blood cells (Rockland, Gilbertsville, Pa.) at 10 μg/mL. Spleens are processed using glass homogenization (frosted slides). Dispersed cell contents are washed in sterile HBSS and RBCs lysed using 1×RBC lysis buffer (BioLegend, Cat #420301). Processed splenocytes are added to each well and are not stimulated with lipopolysaccharide (LPS) to avoid skewing of true ex vivo frequencies of antibody-secreting cell types (ASCs). Anti-mouse pan-IgG is used as a positive control for total IgG producing ASCs and is used to normalize results. Frequencies for each antigen are identified in an initial test phase for each model. For chromatin and total IgG only, 30,000 splenocytes are added to each well; for Smith antigen and dsDNA, 500,000 cells are added to each well. Different numbers of splenocytes are added for different antigens due to saturation limits of spot frequencies per well. B-cell Elispots are incubated overnight at 37° C. To develop each assay, secondary antibody is added to each well, incubated, washed and alkaline phosphatase strepavidin (Jackson ImmunoResearch, West Grove, Pa.) is used as the conjugate; substrate used is BCIP-NBT (MabTech, Cincinnati, Ohio). Plates are developed until spots are visible. All Elispot analyses are performed using an Immunospot C.T.L. scanner and Biospot software (Cellular Technology Ltd., Shaker Heights, Ohio). Results are shown as values from which media and cells only wells are subtracted. Some values are negative due to high background."}, "NZM mice [7]": {"test_system": "NZM mice", "assay": "Renal histopathology scoring (kidney IC-GN), NZM mice (Example 2)", "format": "in vivo, mouse", "procedure": "For histological analyses, the left kidney from each animal is removed and fixed in 10% buffered neutral formalin (EMD) for 48 hours on an orbital rocker at 25° C., then washed overnight with running dH2O and stored in 70% ethanol at 4° C. until ready to be processed. Kidney stains used for histological analyses included hematoxylin and eosin (H&E), Periodic Acid Schiff (PAS) and Trichrome stains (Wistar Institute, Philadelphia, Pa.). All 3 stained sections are used by the pathologist for scoring purposes. All histological scoring is performed blinded and by an independent board certified veterinary medical pathologist (Julie Engiles, VMD, DACVP). Multiple stains are used to determine score values. Images in FIG. 39 show worst affected area of section selected blindly by the pathologist.\nKidney IC-GN Scoring Method (Smith, Dong et al. 2007):\n1. Glomerular cellularity—Score 1-5: Null, low, moderate, high, severe\n2. Glomerular necrosis—Score 1-5: Null, low, moderate, high, severe\n3. Glomerulosclerosis—Score 1-5: Null, low, moderate, high, severe\n4. Interstitial infiltration—Score 1-5: Null, low, moderate, high, severe\n5. Tubular atrophy—Score 1-5: Null, low, moderate, high, severe\n6. Interstitial fibrosis—Score 1-5: Null, low, moderate, high, severe\n7. Vasculitis—Score 1-5: Null, low, moderate, high, severe\nSpecific Pathologist Definitions: • Necrosis is defined by the presence of nuclear debris/pyknosis within the glomerular tuft indicative of “necrosis.” In many samples, this is a very mild, rare finding within only a very few segments of the glomerular tuft. Also consider effacement of the glomerular tuft by PAS positive, Trichrome negative material necrosis. • Glomerular sclerosis is defined by increased fibroplasia or fibrosis within the glomerular tuft or capsule. […] Most of the vascular changes are mild and could be considered “arteriosclerosis” characterized by proliferation of the smooth muscle cells, and hyalinization of the extracellular matrix. This change may reflect hypertension secondary to glomerular pathology. In very few animals is there overt “vasculitis.” Most inflammatory changes are within the walls of the blood vessels, with little to no damage to the endothelium, and no overt hemorrhage/fibrin leakage. Many also have perivascular rims of fibroblasts."}, "NZM mice [8]": {"test_system": "NZM mice", "assay": "Body weight progression, NZM mice (Example 2)", "format": "in vivo, mouse", "details": "G6 50 mg/kg ip, 1× wk"}, "NZM mice [9]": {"test_system": "NZM mice", "assay": "Splenomegaly (spleen mass), NZM mice (Example 2)", "format": "in vivo, mouse"}}}
{"smiles": "O=P1(N(CCCl)CCCl)NCCCO1", "note": "(centres unmarked) [CTX, Cyclophosphamide]", "values": [{"measurement": "EOS survival, percent live mice from original number", "setting": "NZM mice [1]", "value": 70, "unit": "%"}, {"measurement": "Urine proteinuria AUC, percent change vs vehicle", "setting": "NZM mice [2]", "value": "−68", "unit": "%"}, {"measurement": "Serum CTx linker AUC, percent change vs vehicle", "setting": "NZM mice [3]", "value": "−26", "unit": "%"}, {"measurement": "Serum C3 complement AUC, percent change vs vehicle", "setting": "NZM mice [4]; G6 50 mg/kg ip, 1× wk", "value": "−18", "unit": "%"}, {"measurement": "p, serum C3 complement levels vs G8 Dex 1.5 mg/kg 3× wk ip", "setting": "NZM mice [4]; G7 50 mg/kg 1× wk ip", "value": "p < 0.01"}, {"measurement": "ANA Smith Ag AUC, percent change vs vehicle", "setting": "NZM mice [5]; G6 50 mg/kg ip, 1× wk", "value": "−86", "unit": "%"}, {"measurement": "ANA chromatin AUC, percent change vs vehicle", "setting": "NZM mice [5]; G6 50 mg/kg ip, 1× wk", "value": "−51", "unit": "%"}, {"measurement": "ANA dsDNA AUC, percent change vs vehicle", "setting": "NZM mice [5]; G6 50 mg/kg ip, 1× wk", "value": "−66", "unit": "%"}, {"measurement": "reduction in anti-chromatin Ab relative to vehicle, significance", "setting": "NZM mice [5]; bortezomib, Dex or CTX treatment groups", "value": "none of which was significant"}, {"measurement": "ASC chromatin EOS, percent change vs vehicle", "setting": "NZM mice [6]; G6 50 mg/kg ip, 1× wk", "value": "−100", "unit": "%"}, {"measurement": "ASC total IgG EOS, percent change vs vehicle", "setting": "NZM mice [6]; G6 50 mg/kg ip, 1× wk", "value": "−93", "unit": "%"}, {"measurement": "p, frequency of anti-chromatin antibody secreting cells in spleen vs G5 Bortezomib 0.3 mg/kg 1× wk ip", "setting": "NZM mice [6]; G7 50 mg/kg 1× wk ip", "value": "P < 0.05"}, {"measurement": "p, frequency of anti-chromatin antibody secreting cells in spleen vs G6 Bortezomib 0.3 mg/kg 2× wk ip", "setting": "NZM mice [6]; G7 50 mg/kg 1× wk ip", "value": "p < 0.05"}, {"measurement": "p, frequency of anti-chromatin antibody secreting cells in spleen vs G9 Vehicle 1× wk ip", "setting": "NZM mice [6]; G7 50 mg/kg 1× wk ip", "value": "p < 0.01"}, {"measurement": "p, frequency of total IgG antibody secreting cells in spleen vs G5 Bortezomib 0.3 mg/kg 1× wk ip", "setting": "NZM mice [6]; G7 50 mg/kg 1× wk ip", "value": "p < 0.001"}, {"measurement": "p, frequency of total IgG antibody secreting cells in spleen vs G6 Bortezomib 0.3 mg/kg 2× wk ip", "setting": "NZM mice [6]; G7 50 mg/kg 1× wk ip", "value": "p < 0.001"}, {"measurement": "p, frequency of total IgG antibody secreting cells in spleen vs G8 Dex 1.5 mg/kg 3× wk ip", "setting": "NZM mice [6]; G7 50 mg/kg 1× wk ip", "value": "P < 0.01"}, {"measurement": "p, frequency of total IgG antibody secreting cells in spleen vs G9 Vehicle 1× wk ip", "setting": "NZM mice [6]; G7 50 mg/kg 1× wk ip", "value": "p < 0.01"}, {"measurement": "p, glomerular cellularity (GC) vs G7 Vehicle", "setting": "NZM mice [7]; G5 50 mg/kg 1× wk", "value": "p < 0.05"}, {"measurement": "Kidney glomerular cellularity, percent change vs vehicle", "setting": "NZM mice [7]; G6 50 mg/kg ip, 1× wk", "value": "−7", "unit": "%"}, {"measurement": "Kidney glomerular necrosis, percent change vs vehicle", "setting": "NZM mice [7]; G6 50 mg/kg ip, 1× wk", "value": 42, "unit": "%"}, {"measurement": "Kidney glomerulosclerosis, percent change vs vehicle", "setting": "NZM mice [7]; G6 50 mg/kg ip, 1× wk", "value": 34, "unit": "%"}, {"measurement": "Kidney interstitial fibrosis, percent change vs vehicle", "setting": "NZM mice [7]; G6 50 mg/kg ip, 1× wk", "value": 11, "unit": "%"}, {"measurement": "Kidney interstitial infiltration, percent change vs vehicle", "setting": "NZM mice [7]; G6 50 mg/kg ip, 1× wk", "value": 11, "unit": "%"}, {"measurement": "Kidney tubular atrophy, percent change vs vehicle", "setting": "NZM mice [7]; G6 50 mg/kg ip, 1× wk", "value": 18, "unit": "%"}, {"measurement": "Kidney vasculitis, percent change vs vehicle", "setting": "NZM mice [7]; G6 50 mg/kg ip, 1× wk", "value": 9, "unit": "%"}, {"measurement": "Body mass AUC, percent change vs vehicle", "setting": "NZM mice [8]", "value": "+4%"}, {"measurement": "Spleen mass EOS, percent change vs vehicle", "setting": "NZM mice [9]; G6 50 mg/kg ip, 1× wk", "value": "−42", "unit": "%"}, {"measurement": "spleen mass compared to once-a-week bortezomib", "setting": "NZM mice [9]; p<0.05", "value": "reduced spleen mass significantly"}]}
